These results are taken from US12673956B2, “Oxadiazolyl dihydropyrano[2,3-b]pyridine inhibitors of HIPK2 for treating kidney fibrosis” (ICAHN SCHOOL OF MEDICINE AT MOUNT SINAI, priority 2021, dated 2026).

For one assay, the system named is TGF/SMAD Signaling Pathway SBE Reporter—HEK293 Cell Line. The assay is described as follows: Luciferase screen, TGF/SMAD SBE reporter HEK293 cells stimulated with TGFβ. It counts as cell-based. Conditions: Homo sapiens, HEK293, 18 h, read-out: Luciferase IC50 nM. How it is done: For the data in Table 1, the Bight-Glo™ Luciferase Assay System from Promega was used with TGF/SMAD Signaling Pathway SBE Reporter—HEK293 Cell Line from BPSbioscience. On day 1 SBE reporter-HEK293 cells were seeded at a density of 25,000 cells per well into a white clear-bottom 96-well microplate in 100 μl of growth medium without geneticin. The plate was incubated at 37° C. in a CO2 incubator for 24 hrs. The wells were renewed with 60 μL assay medium and treated with test compounds by adding 5 μL of compounds in medium. The concentration of test compound in medium is adjusted so that 5 μL will provide the desired molarity of the solution. For example, if the desired test concentration is 30 µM, then 5 μL of […] compound is added. After 4 hours, TGFβ was added to 10 ng/mL. The plate was incubated at 37° C. in a CO2 incubator overnight (18 hours). One hour prior to assay all medium was replaced. The luciferase assay was run using ONE-Step™ Luciferase Assay System by adding 100 al of ONE-Step™ Luciferase reagent per well, rocking at room temperature for ~15 to 30 minutes and measuring luminescence using a luminometer. The signals were normalized to percentage inhibition, with non-TGF treated cells as 100% inhibition, and the data were processed by Graphpad Prism.
For orientation: IC50 means the concentration needed to halve the response being measured. Consider `CC1(C)Oc2ncc(-c3nc(-c4ccc(Cl)c(F)c4)no3)cc2CC1O` (stereo in doubt) [Example 35, (S)-6-(3-(4-chloro-3-fluorophenyl)-1,2,4-oxadiazol-5-yl)-2,2-dimethyl-3,4-dihydro-2H-pyrano[2,3-b]pyridin-3-ol], for which the IC50 was 22 nM.

With `CC1(C)Oc2ncc(-c3nc(-c4ncco4)no3)cc2C[C@@H]1O` [Example 32, (S)-2,2-dimethyl-6-(3-(oxazol-2-yl)-1,2,4-oxadiazol-5-yl)-3,4-dihydro-2H-pyrano[2,3-b]pyridin-3-ol], the IC50 turned out to be 65 nM.

Turning to `CC1(C)Oc2ncc(-c3nc(-c4ncco4)no3)cc2C[C@H]1O` [Example 33, (3R)-2,2-dimethyl-6-(3-oxazol-2-yl-1,2,4-oxadiazol-5-yl)-3,4-dihydropyrano[2,3-b]pyridin-3-ol], the IC50 worked out at 76 nM.

For the compound `CC1(C)Oc2ncc(-c3nc(-c4ccc(Cl)c(F)c4)no3)cc2C[C@@H]1O` [Example 34, (S)-6-(3-(4-chloro-3-fluorophenyl)-1,2,4-oxadiazol-5-yl)-2,2-dimethyl-3,4-dihydro-2H-pyrano[2,3-b]pyridin-3-ol], the IC50 amounted to 39 nM.

As to `CC1(C)Oc2ncc(-c3nc(-c4ccc(Br)cc4)no3)cc2CC1O` (stereo not drawn) [Example 1, 6-(3-(4-bromophenyl)-1,2,4-oxadiazol-5-yl)-2,2-dimethyl-3,4-dihydro-2H-pyrano[2,3-b]pyridin-3-ol], the IC50 is 43 nM.

Regarding `CC1(C)Oc2ncc(-c3nc(-c4cc(Cl)cc(Cl)c4)no3)cc2C[C@@H]1O` [Example 39, (S)-6-(3-(3,5-dichlorophenyl)-1,2,4-oxadiazol-5-yl)-2,2-dimethyl-3,4-dihydro-2H-pyrano[2,3-b]pyridin-3-ol], the concentration for half-maximal inhibition (IC50) came to 1250 nM.

On to `CC1(C)Oc2ncc(-c3nc(-c4ccc(Br)cc4)no3)cc2C(N)C1O` (stereo not drawn) [Example 2, 4-amino-6-(3-(4-bromophenyl)-1,2,4-oxadiazol-5-yl)-2,2-dimethyl-3,4-dihydro-2H-pyrano[2,3-b]pyridin-3-ol], for which the IC50 was found to be 8150 nM.

Turning to `CC1(C)Oc2ncc(-c3nc(-c4ccc(Br)cc4)no3)cc2[C@@H](O)[C@@H]1O` [Example 9, (3S,4R)-6-(3-(4-bromophenyl)-1,2,4-oxadiazol-5-yl)-2,2-dimethyl-3,4-dihydro-2H-pyrano[2,3-b]pyridine-3,4-diol], the IC50 turned out to be 2420 nM.

With `CC1(C)Oc2ncc(-c3nc(-c4ccc(Br)cc4)no3)cc2[C@H](O)[C@H]1O` [Example 8, (3R,4S)-6-(3-(4-bromophenyl)-1,2,4-oxadiazol-5-yl)-2,2-dimethyl-3,4-dihydro-2H-pyrano[2,3-b]pyridine-3,4-diol], the IC50 was found to be 11300 nM.

On to `CCn1ccc(-c2noc(-c3cnc4c(c3)C[C@@H](O)C(C)(C)O4)n2)n1` [Example 29, (R)-6-(3-(1-ethyl-1H-pyrazol-3-yl)-1,2,4-oxadiazol-5-yl)-2,2-dimethyl-3,4-dihydro-2H-pyrano[2,3-b]pyridin-3-ol], for which the IC50 was 56 nM.

On to `Cc1ccc(-c2noc(-c3cnc4c(c3)C[C@H](O)C(C)(C)O4)n2)cc1` [Example 21, (S)-2,2-dimethyl-6-(3-p-tolyl-1,2,4-oxadiazol-5-yl)-3,4-dihydro-2H-pyrano[2,3-b]pyridin-3-ol], for which the IC50 was 17 nM.

For the compound `CC1(C)Oc2ncc(-c3nc(-c4ccc(Cl)c(Cl)c4)no3)cc2C[C@@H]1O` [Example 22, (S)-6-(3-(3,4-dichlorophenyl)-1,2,4-oxadiazol-5-yl)-2,2-dimethyl-3,4-dihydro-2H-pyrano[2,3-b]pyridin-3-ol], the half-maximal inhibitory concentration (IC50) came to 43 nM.

For `CC1(C)Oc2ncc(-c3nc(-c4nc(Cl)cs4)no3)cc2C[C@@H]1O` [Example 28, (S)-6-(3-(4-chlorothiazol-2-yl)-1,2,4-oxadiazol-5-yl)-2,2-dimethyl-3,4-dihydro-2H-pyrano[2,3-b]pyridin-3-ol], the IC50 was 13 nM.

Staying with this assay, now noted: Homo sapiens; SBE reporter-HEK293 cells, TGFβ 10 ng/mL, 18 hours; read-out: Luciferase IC50.
In the case of `CC1(C)Oc2ncc(-c3nc(-c4ccc(F)cc4)no3)cc2C[C@@H]1O` [Example 20, (S)-6-(3-(4-fluorophenyl)-1,2,4-oxadiazol-5-yl)-2,2-dimethyl-3,4-dihydro-2H-pyrano[2,3-b]pyridin-3-ol], the half-maximal inhibitory concentration (IC50) came to 223 nM.

`Cc1cnc(-c2noc(-c3cnc4c(c3)C[C@@H](O)C(C)(C)O4)n2)s1` [Example 26, (R)-2,2-dimethyl-6-(3-(5-methylthiazol-2-yl)-1,2,4-oxadiazol-5-yl)-3,4-dihydro-2H-pyrano[2,3-b]pyridin-3-ol]: the IC50 stood at 708 nM.

Take `CC1(C)C[C@@H](O)c2cc(-c3nc(-c4ccc(Br)cc4)no3)cnc2O1` (single isomer, unassigned) [Example 10]: the 50% inhibitory concentration (IC50) worked out at 233 nM.

Turning to `CC1(C)CC(O)c2cc(-c3nc(-c4ccc(Br)cc4)no3)cnc2O1` (stereo not drawn) [Example 5, 6-(3-(4-bromophenyl)-1,2,4-oxadiazol-5-yl)-2,2-dimethyl-3,4-dihydro-2H-pyrano[2,3-b]pyridin-4-ol], the IC50 came to 86 nM.

For the compound `CC1(C)Oc2ncc(-c3nc(-c4nccs4)no3)cc2CC1O` (stereo in doubt) [Example 16, (S)-2,2-dimethyl-6-(3-(thiazol-2-yl)-1,2,4-oxadiazol-5-yl)-3,4-dihydro-2H-pyrano[2,3-b]pyridin-3-ol], the IC50 was 1110 nM.

Turning to `CO[C@H]1Cc2cc(-c3nc(-c4ccc(Cl)cc4)no3)cnc2OC1(C)C` [Example 19, (S)-6-(3-(4-chlorophenyl)-1,2,4-oxadiazol-5-yl)-3-methoxy-2,2-dimethyl-3,4-dihydro-2H-pyrano[2,3-b]pyridine], the IC50 came to 340 nM.

With `CC1(C)Oc2ncc(-c3nc(-c4cccc(Cl)c4)no3)cc2C[C@@H]1O` [Example 30, (S)-6-(3-(3-chlorophenyl)-1,2,4-oxadiazol-5-yl)-2,2-dimethyl-3,4-dihydro-2H-pyrano[2,3-b]pyridin-3-ol], the IC50 was 136 nM.

In the case of `CC1(C)Oc2ncc(-c3nc(-c4cccc(Cl)c4)no3)cc2C[C@H]1O` [Example 31, (R)-6-(3-(3-chlorophenyl)-1,2,4-oxadiazol-5-yl)-2,2-dimethyl-3,4-dihydro-2H-pyrano[2,3-b]pyridin-3-ol], the IC50 is 152 nM.

Turning to `C[C@H]1CCc2cc(-c3nc(-c4ccc(Br)cc4)no3)cnc2O1` [Example 3], the IC50 is 234 nM.

Regarding `Cn1ccc(-c2noc(-c3cnc4c(c3)C[C@@H](O)C(C)(C)O4)n2)n1` [Example 17, (R)-2,2-dimethyl-6-(3-(1-methyl-1H-pyrazol-3-yl)-1,2,4-oxadiazol-5-yl)-3,4-dihydro-2H-pyrano[2,3-b]pyridin-3-ol], the IC50 was determined as 18 nM.

Regarding `Cc1cnc(-c2noc(-c3cnc4c(c3)C[C@H](O)C(C)(C)O4)n2)s1` [Example 24, (S)-2,2-dimethyl-6-(3-(5-methylthiazol-2-yl)-1,2,4-oxadiazol-5-yl)-3,4-dihydro-2H-pyrano[2,3-b]pyridin-3-ol], the IC50 stood at 822 nM.

As for `CC1(C)Oc2ncc(-c3nc(-c4ncc(Cl)s4)no3)cc2C[C@H]1O` [Example 25, (R)-6-(3-(5-chlorothiazol-2-yl)-1,2,4-oxadiazol-5-yl)-2,2-dimethyl-3,4-dihydro-2H-pyrano[2,3-b]pyridin-3-ol], the half-inhibitory concentration (IC50) came to 206 nM.

As for `Cc1cc(-c2noc(-c3cnc4c(c3)C[C@@H](O)C(C)(C)O4)n2)ccc1Cl` [Example 37, (3R)-6-[3-(4-chloro-3-methyl-phenyl)-1,2,4-oxadiazol-5-yl]-2,2-dimethyl-3,4-dihydropyrano[2,3-b]pyridin-3-ol], the IC50 was determined as 50 nM.

On to `Cn1ccc(-c2noc(-c3cnc4c(c3)C[C@H](O)C(C)(C)O4)n2)n1` [Example 18, (S)-2,2-dimethyl-6-(3-(1-methyl-1H-pyrazol-3-yl)-1,2,4-oxadiazol-5-yl)-3,4-dihydro-2H-pyrano[2,3-b]pyridin-3-ol], for which the IC50 came out at 28 nM.

For the compound `CC1(C)Oc2ncc(-c3nc(-c4nc(Cl)cs4)no3)cc2C[C@H]1O` [Example 27, (R)-6-(3-(4-chlorothiazol-2-yl)-1,2,4-oxadiazol-5-yl)-2,2-dimethyl-3,4-dihydro-2H-pyrano[2,3-b]pyridin-3-ol], the IC50 came out at 705 nM.

As to `CC1(C)Oc2ncc(-c3nc(-c4nccs4)no3)cc2CC1O` (stereo in doubt) [Example 14, (R)-2,2-dimethyl-6-(3-(thiazol-2-yl)-1,2,4-oxadiazol-5-yl)-3,4-dihydro-2H-pyrano[2,3-b]pyridin-3-ol], the IC50 amounted to 1370 nM.

Turning to `CC1(C)Oc2ncc(-c3nc(-c4cc(Cl)cc(Cl)c4)no3)cc2C[C@H]1O` [Example 40, (R)-6-(3-(3,5-dichlorophenyl)-1,2,4-oxadiazol-5-yl)-2,2-dimethyl-3,4-dihydro-2H-pyrano[2,3-b]pyridin-3-ol], the IC50 is 843 nM.

For `CC1(C)Oc2ncc(-c3nc(-c4ccc(Cl)cc4)no3)cc2CC1O` (stereo in doubt) [Example 12, (R)-6-(3-(4-chlorophenyl)-1,2,4-oxadiazol-5-yl)-2,2-dimethyl-3,4-dihydro-2H-pyrano[2,3-b]pyridin-3-ol], the IC50 stood at 89 nM.

For `CC1(C)C[C@H](O)c2cc(-c3nc(-c4ccc(Br)cc4)no3)cnc2O1` (single isomer, unassigned) [Example 11], the IC50 turned out to be 57 nM.

As for `C[C@@H]1CCc2cc(-c3nc(-c4ccc(Br)cc4)no3)cnc2O1` [Example 4, ethyl (R)-6-(3-(4-bromophenyl)-1,2,4-oxadiazol-5-yl)-2-methyl-3,4-dihydro-2H-pyrano[2,3-b]pyridine], the IC50 was 126 nM.
